Measurements as given in patent US20250304549A1, “HYDROXYAMIDE DERIVATIVE AND USE THEREOF” (SICHUAN HUIYU PHARMACEUTICAL CO., LTD., priority 2022, published 2025).
Counter-ions that a name gives are not always drawn.

Tests used:
HDAC8 = HDAC8 (Homo sapiens (Human), UniProt Q9BY41); experiment: In vitro enzyme inhibition assay - HDAC (HDAC-Glo I/II), HDAC8; type: biochemical; details: read-out: HDAC IC50 (nM) HDAC 8
How it was run: (§1)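 Eight compound concentrations (5-fold steps from a 1 mM DMSO stock) tested against pan-HDAC, HDAC1 and HDAC8 with HDAC-Glo I/II reagents, luminescence read-out. Percent inhibition normalized to no-inhibitor and no-enzyme wells; IC50 derived by four-parameter logistic fit.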

DU145 cells = experiment: In vitro cell inhibition assay - DU145 cell proliferation (CellTiter-Glo); type: cell-based; details: Homo sapiens, DU-145, Du145 prostate cancer cell proliferation
How it was run: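 DU145 cells were seeded at 1×10^3 per well, exposed next day to an 8-point, 5-fold compound dilution series in RPMI-640 with 10% FBS, and incubated 6 days at 37° C. Viable cells were measured by CellTiter-Glo luminescence, and IC50 was fitted from inhibition rates relative to no-inhibitor and no-cell controls.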

NCI-H1417 cells = experiment: In vitro cell inhibition assay - H1417 cell proliferation (CellTiter-Glo); type: cell-based; details: Homo sapiens, NCI-H1417, H1417 small cell lung cancer cell proliferation
How it was run: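 Cells exposed to 8 compound concentrations (5-fold dilutions) in BEGM with 10% FBS for 7 days at 37° C., 5% CO2. Viable cells measured by CellTiter-Glo luminescence; inhibition versus no-inhibitor and no-cell controls, IC50 fitted.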

LSD1 = LSD1 (Homo sapiens (Human), UniProt O60341); experiment: In vitro enzyme inhibition assay - LSD1 (HTRF); type: biochemical
NCI-H526 cells = experiment: In vitro cell inhibition assay - NCI-H526 cell proliferation (CellTiter-Glo); type: cell-based; details: Homo sapiens, NCI-H526, 120 h, H526 small cell lung cancer cell proliferation, 5 days
How it was run: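 NCI-H526 cells plated at 1×10^3 per well overnight, then treated with 8 concentrations (5-fold dilutions) in RPMI-640 with 10% FBS for 5 days at 37° C., 5% CO2. Viable cells quantified by CellTiter-Glo luminescence; IC50 fitted from inhibition rates relative to no-inhibitor and no-cell controls.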

NCI-H69 cells = experiment: In vitro cell inhibition assay - NCI-H69 cell proliferation (CellTiter-Glo); type: cell-based; details: Homo sapiens, NCI-H69, H69 small cell lung cancer cell proliferation
How it was run: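 NCI-H69 cells seeded at 1×10^3 per well overnight, then given 8 compound concentrations (5-fold dilutions) in RPMI-640 with 20% FBS for 7 days at 37° C., 5% CO2. Viable cells by CellTiter-Glo luminescence; IC50 fitted from inhibition rate versus no-inhibitor and no-cell controls.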

HDAC1 = HDAC1 (Homo sapiens (Human), UniProt Q13547); experiment: In vitro enzyme inhibition assay - HDAC (HDAC-Glo I/II), HDAC1; type: biochemical; details: read-out: HDAC IC50 (nM) HDAC 1
Sequence of HDAC1 (Q13547 whole entry): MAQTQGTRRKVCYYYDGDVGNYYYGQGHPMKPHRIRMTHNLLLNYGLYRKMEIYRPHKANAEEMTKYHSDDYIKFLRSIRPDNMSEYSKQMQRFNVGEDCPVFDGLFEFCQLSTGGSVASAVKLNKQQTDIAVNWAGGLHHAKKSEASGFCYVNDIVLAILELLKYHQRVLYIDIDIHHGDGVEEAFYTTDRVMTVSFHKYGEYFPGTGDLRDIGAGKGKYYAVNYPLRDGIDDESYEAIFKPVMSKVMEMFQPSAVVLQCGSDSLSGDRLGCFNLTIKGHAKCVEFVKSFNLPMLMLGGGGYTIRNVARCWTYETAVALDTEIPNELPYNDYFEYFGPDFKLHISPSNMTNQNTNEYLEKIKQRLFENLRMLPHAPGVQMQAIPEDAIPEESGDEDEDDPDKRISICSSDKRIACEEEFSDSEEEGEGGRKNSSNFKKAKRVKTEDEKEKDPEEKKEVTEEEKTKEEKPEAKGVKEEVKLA
How it was run: as §1

pan-HDAC = experiment: In vitro enzyme inhibition assay - HDAC (HDAC-Glo I/II), pan-HDAC; type: biochemical
How it was run: as §1

Sequence of HDAC8 (Q9BY41 whole entry): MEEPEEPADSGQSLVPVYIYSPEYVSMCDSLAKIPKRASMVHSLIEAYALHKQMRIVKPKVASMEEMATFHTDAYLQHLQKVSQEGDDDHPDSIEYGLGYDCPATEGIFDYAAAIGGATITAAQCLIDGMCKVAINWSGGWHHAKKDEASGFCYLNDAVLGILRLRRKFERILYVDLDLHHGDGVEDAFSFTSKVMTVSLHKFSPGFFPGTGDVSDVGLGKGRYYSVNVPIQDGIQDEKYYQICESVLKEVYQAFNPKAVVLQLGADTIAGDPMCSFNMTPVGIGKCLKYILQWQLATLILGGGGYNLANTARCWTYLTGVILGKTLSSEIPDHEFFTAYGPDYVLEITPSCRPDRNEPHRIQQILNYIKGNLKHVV

SMILES | IC50 (HDAC8) | IC50 (DU145 cells) | IC50 (NCI-H1417 cells) | IC50 (LSD1) | IC50 (NCI-H526 cells) | IC50 (NCI-H69 cells) | IC50 (HDAC1) | IC50 (pan-HDAC)
COc1ccc(-c2cnc(N3CCC(NCc4ccc(/C=C/C(=O)NO)cc4)CC3)c(C#N)c2-c2ccc([N+](=O)[O-])cc2)cc1O [Example 150, (E)-3-(4-(((1-(3-Cyano-5-(3-hydroxy-4-methoxyphenyl)-4-(4-nitrophenyl)pyridin-2-yl)piperidin-4-yl)amino)methyl)phenyl)-N-hydroxyacrylamide formate] | 89.3 nM | 9.26 nM | 5.53 nM | 0.59 nM | 9.84 nM | 16.9 nM | 0.21 nM | 1.3 nM
COc1ccc(-c2cnc(N3CCC(NCc4ccc(/C=C/C(=O)NO)s4)CC3)c(C#N)c2-c2ccc(C#N)c(F)c2)cc1O [Example 105, (E)-3-(5-(((1-(3-Cyano-4-(4-cyano-3-fluorophenyl)-5-(3-hydroxy-4-methoxyphenyl)pyridin-2-yl)piperidin-4-yl)amino)methyl)thiophen-2-yl)-N-hydroxyacrylamide formate] | 185 nM | 317 nM | 4.48 nM | 1.24 nM | 124 nM | 102 nM | 120 nM | 114 nM
COc1ccc(-c2cnc(N3CCC(NCc4ncc(/C=C/C(=O)NO)cn4)CC3)c(C#N)c2-c2ccc(C#N)c(F)c2)cc1O [Example 135, (E)-3-(2-(((1-(3-Cyano-4-(4-cyano-3-fluorophenyl)-5-(3-hydroxy-4-methoxyphenyl)pyridin-2-yl)piperidin-4-yl)amino)methyl)pyrimidin-5-yl)-N-hydroxyacrylamide formate] | 1010 nM | 1580 nM | 6 nM | 3.16 nM | 200 nM | 199 nM | 17.3 nM | 39.7 nM
Cc1noc2cc(-c3c(-c4ccc(C#N)c(F)c4)nc(N4CCC(NCc5ccc(/C=C/C(=O)NO)cc5)CC4)n4ccnc34)c(F)cc12 [Example 36, (E)-3-(4-(((1-(7-(4-Cyano-3-fluorophenyl)-8-(5-fluoro-3-methyl-benzo[d]isoxazol-6-yl)imidazo[1,2-c]pyrimidin-5-yl)piperidin-4-yl)amino)methyl)phenyl)-N-hydroxyacrylamide formate] | 97.7 nM | 1010 nM | 6.58 nM | 1.18 nM | 665 nM | 109 nM | 118 nM | 75.1 nM
Cc1noc2cc(-c3cnc(N4CCC(NCc5ccc(/C=C/C(=O)NO)cc5)CC4)c(C#N)c3-c3ccc(C#N)c(F)c3)c(F)cc12 [Example 110, (E)-3-(4-((1-(3-Cyano-4-(4-cyano-3-fluorophenyl)-5-(5-fluoro-3-methylbenzo[d]isoxazol-6-yl)pyridin-2-yl)piperidin-4-yl)amino)methyl) phenyl)-N-hydroxyacrylamide formate] | 137 nM | 187 nM | 2.7 nM | 1.05 nM | 127 nM | 82.7 nM | 156 nM | 57.3 nM
N#Cc1ccc(-c2c(-c3ccc(OC(F)F)c(O)c3)cnc(N3CCC(NCc4ccc(/C=C/C(=O)NO)cc4)CC3)c2C#N)cc1F [Example 124, (E)-3-(4-(((1-(3-Cyano-4-(4-cyano-3-fluorophenyl)-5-(4-(difluoromethoxy)-3-hydroxyphenyl)pyridin-2-yl))piperidin-4-yl)amino)methyl) phenyl)-N-hydroxyacrylamide formate] | 179 nM | 30.5 nM | 3.34 nM | 1.63 nM | 20.6 nM | 18.3 nM | 3.95 nM | 7.69 nM
N#Cc1ccc(-c2c(-c3ccc(CO)c(O)c3)cnc(N3CCC(NCc4ccc(/C=C/C(=O)NO)cc4)CC3)c2C#N)cc1F [Example 131, (E)-3-(4-(((1-(3-Cyano-4-(4-cyano-3-fluorophenyl)-5-(3-hydroxy-4-(hydroxymethyl)phenyl)pyridin-2-yl)piperidin-4-yl)amino)methyl)phenyl)-N-hydroxyacrylamide formate] | 46.6 nM | 7.09 nM | 0.62 nM | 1.31 nM | 3.54 nM | 2.59 nM | 0.22 nM | 1.57 nM
COc1ccc(-c2cnc(N3CCC(NCCc4ccc(/C=C/C(=O)NO)cc4)CC3)c(C#N)c2-c2ccc(C#N)c(F)c2)cc1O [Example 45, (E)-3-(4-(2-((1-(3-Cyano-4-(4-cyano-3-fluorophenyl)-5-(3-hydroxy-4-methoxyphenyl)pyridin-2-yl)piperidin-4-yl)amino)ethyl)phenyl)-N-hydroxyacrylamide hydrochloride] | 156 nM | 1050 nM | 6.48 nM | 0.36 nM | 288 nM | 151 nM | 70.6 nM | 32.1 nM
COc1ccc(-c2cnc(N3CCC(C)(NCc4ccc(/C=C/C(=O)NO)cc4)CC3)c(C#N)c2-c2ccc(C#N)c(F)c2)cc1O [Example 44, (E)-3-(4-(((1-(3-Cyano-4-(4-cyano-3-fluorophenyl)-5-(3-hydroxy-4-methoxyphenyl)pyridin-2-yl)-4-methylpiperidin-4-yl)amino)methyl)phenyl)-N-hydroxyacrylamide formate] | 188 nM | 567 nM | 16.1 nM | 2.58 nM | 139 nM | 150 nM | 45.8 nM | 27.9 nM
COc1ccc(-c2cnc(N3CCC(NCc4ccc(/C=C/C(=O)NO)cc4)CC3)c(C#N)c2-c2ccc(C#N)c(F)c2)cc1 [Example 52, (E)-3-(4-(((1-(3-Cyano-4-(4-cyano-3-fluorophenyl)-5-(4-methoxyphenyl)pyridin-2-yl)piperidin-4-yl)amino)methyl)phenyl)-N-hydroxyacrylamide hydrochloride] | 140 nM | 216 nM | 81.6 nM | 47.8 nM | 111 nM | 71 nM | 15.9 nM | 4.22 nM
COc1ccc(-c2sc(C(=O)N3CCC(NCc4ccc(/C=C/C(=O)NO)cc4)CC3)cc2-c2ccc(C#N)c(F)c2)cc1O [Example 33, (E)-3-(4-(((1-(4-(4-cyano-3-fluorophenyl)-5-(3-hydroxy-4-methoxyphenyl)thiophene-2-carbonyl)piperidin-4-yl)amino)methyl)phenyl)-N-hydroxyacrylamide hydrochloride] | 182 nM | 1980 nM | 140 nM | 3.71 nM | 470 nM | 186 nM | 56.4 nM | 34.2 nM
COc1ccc(-c2cnc(N3CCC(NCc4ccc(/C=C/C(=O)NO)cc4)CC3)c(C)c2-c2ccc(C#N)c(F)c2)cc1O [Example 144, (E)-3-(4-(((1-(4-(4-Cyano-3-fluorophenyl)-5-(3-hydroxy-4-methoxyphenyl)-3-methylpyridin-2-yl)piperidin-4-yl)amino)methyl)phenyl)-N-hydroxyacrylamide hydrochloride] | 91.6 nM | 9.28 nM | 11.2 nM | 1.07 nM | 8.4 nM | 11.2 nM | 0.21 nM | 0.86 nM
